# Laboratory results taken from ChEMBL document CHEMBL1156536, “Thiocarbamates as non-nucleoside HIV-1 reverse transcriptase inhibitors. Part 2: Parallel synthesis, molecular modelling and structure-activity relationship studies on analogues of O-(2-phenylethyl)-N-phenylthiocarbamate” (Bioorg Med Chem, 2008).
# Activity calls are given as the source filed them. No cut-off for these calls is given here.
# System: Human immunodeficiency virus 1
# Experiment: Antiviral activity against HIV1 with reverse transcriptase Y181C mutation in human MT4 cells assessed as inhibition of virus-induced cytopathogenicity by MTT assay
# Type: functional, organism-based
# Details: Human immunodeficiency virus 1, MT4
row,SMILES,EC50
1,COc1ccccc1CCOC(=S)Nc1ccc(Cl)cc1,8.9 µM
2,Cc1cccc(CCOC(=S)Nc2ccc([N+](=O)[O-])cc2)c1,8.9 µM
3,COc1cccc(CCOC(=S)Nc2ccc(Cl)cc2)c1,12 µM
4,Cc1ccc(CCOC(=S)Nc2ccc([N+](=O)[O-])cc2)cc1,8.6 µM
5,COc1cccc(CCOC(=S)Nc2ccc([N+](=O)[O-])cc2)c1,8.3 µM
6,CC(COC(=S)Nc1ccc(Cl)cc1)c1ccccc1 (racemic),12 µM

# Target: Human immunodeficiency virus type 1 reverse transcriptase (Human immunodeficiency virus 1, UniProt Q72547)
# Experiment: Inhibition of HIV1 recombinant wild type reverse transcriptase
# Details: not given
row,IC50,SMILES
1,1 µM,CC(COc1ccccc1)OC(=S)Nc1ccccc1 (racemic)
2,1.4 µM,Cc1ccc(NC(=S)OC(C)COc2ccccc2)cc1 (racemic)

# System: Human immunodeficiency virus 1
# Experiment: Antiviral activity against HIV1 in human MT4 cells assessed as inhibition of virus-induced cytopathogenicity by MTT assay
# Type: functional, organism-based
# Details: Human immunodeficiency virus 1, MT4
row,SMILES,EC50
1,CCC(OC(=S)Nc1ccccc1)c1ccccc1 (racemic),> 100 µM
2,Cc1ccc(NC(=S)OCCOc2ccccc2)cc1,10 µM
3,CC(COC(=S)Nc1ccc(Cl)c(Cl)c1)c1ccccc1 (racemic),0.3 µM
4,S=C(Nc1ccccc1)OCCSc1ccccc1,38 µM
5,S=C(Nc1ccccc1)OC/C=C/c1ccccc1,67 µM
6,COc1ccccc1CCOC(=S)Nc1ccc(Cl)cc1,0.07 µM
7,S=C(Nc1ccccc1)OCC(c1ccccc1)c1ccccc1,> 100 µM
8,COc1ccccc1CCOC(=S)Nc1ccc(Cl)c(Cl)c1,0.3 µM
9,S=C(Nc1ccc(Cl)cc1)OCCOc1ccccc1,2.9 µM
10,COc1cccc(CCOC(=S)Nc2ccc(Cl)c(Cl)c2)c1,1 µM
11,S=C(Nc1ccccc1)OCC1COc2ccccc2O1 (stereo not drawn),52 µM
12,O=[N+]([O-])c1ccc(NC(=S)OCCc2cccc(O)c2)cc1,3.7 µM
13,S=C(Nc1ccccc1)OCC1(c2ccccc2)CC1,7 µM
14,S=C(Nc1ccccc1)OCc1c(Cl)cccc1Cl,> 100 µM
15,Cc1ccccc1CCOC(=S)Nc1ccc([N+](=O)[O-])cc1,0.7 µM
16,CC(OC(=S)Nc1ccc([N+](=O)[O-])cc1)c1ccc(Cl)cc1 (racemic),7 µM

row,SMILES,EC50
1,Cc1ccc(NC(=S)OC(C)COc2ccccc2)cc1Cl (racemic),4 µM
2,COc1ccccc1CCOC(=S)Nc1ccc(Cl)c([N+](=O)[O-])c1,0.9 µM
3,COc1ccccc1CCOC(=S)Nc1ccc([N+](=O)[O-])cc1,0.1 µM
4,CC(OC(=S)Nc1ccc(Cl)cc1)c1ccc(-c2ccccc2)cc1 (racemic),57 µM
5,S=C(Nc1ccccc1)OCc1cccc(Oc2ccccc2)c1,> 100 µM
6,COc1ccc(NC(=S)OCCOc2ccccc2)cc1,17 µM
7,S=C(Nc1ccccc1)OCc1cccs1,> 38 µM
8,CC(COc1ccccc1)OC(=S)Nc1ccc(F)cc1 (racemic),11 µM
9,Cc1cccc(CCOC(=S)Nc2ccc([N+](=O)[O-])cc2)c1,0.5 µM
10,CC(COc1ccccc1)OC(=S)Nc1ccccc1 (racemic),2 µM
11,Cc1ccc(NC(=S)OC(C)COc2ccccc2)cc1 (racemic),1.2 µM
12,COc1cccc(CCOC(=S)Nc2ccc(Cl)cc2)c1,0.08 µM
13,Cc1ccc(CCOC(=S)Nc2ccc([N+](=O)[O-])cc2)cc1,0.3 µM
14,COc1cccc(CCOC(=S)Nc2ccc([N+](=O)[O-])cc2)c1,0.2 µM
15,CC(COC(=S)Nc1ccc(Cl)cc1)c1ccccc1 (racemic),0.2 µM

# System: not listed separately
# Experiment: Cytotoxicity against mock-infected human MT4 cells by MTT assay
# Type: cell-based
# Details: not given
row,SMILES,CC50
1,CCC(OC(=S)Nc1ccccc1)c1ccccc1 (racemic),> 100 µM
2,Cc1ccc(NC(=S)OCCOc2ccccc2)cc1,74 µM
3,CC(COC(=S)Nc1ccc(Cl)c(Cl)c1)c1ccccc1 (racemic),44 µM
4,S=C(Nc1ccccc1)OCCSc1ccccc1,> 100 µM
5,S=C(Nc1ccccc1)OC/C=C/c1ccccc1,> 100 µM
6,COc1ccccc1CCOC(=S)Nc1ccc(Cl)cc1,43 µM
7,S=C(Nc1ccccc1)OCC(c1ccccc1)c1ccccc1,> 100 µM
8,COc1ccccc1CCOC(=S)Nc1ccc(Cl)c(Cl)c1,> 45 µM
9,S=C(Nc1ccc(Cl)cc1)OCCOc1ccccc1,34 µM
10,COc1cccc(CCOC(=S)Nc2ccc(Cl)c(Cl)c2)c1,44 µM
11,S=C(Nc1ccccc1)OCC1COc2ccccc2O1 (stereo not drawn),> 100 µM
12,O=[N+]([O-])c1ccc(NC(=S)OCCc2cccc(O)c2)cc1,24 µM
13,S=C(Nc1ccccc1)OCC1(c2ccccc2)CC1,51 µM
14,S=C(Nc1ccccc1)OCc1c(Cl)cccc1Cl,> 100 µM
15,Cc1ccccc1CCOC(=S)Nc1ccc([N+](=O)[O-])cc1,> 100 µM
16,CC(OC(=S)Nc1ccc([N+](=O)[O-])cc1)c1ccc(Cl)cc1 (racemic),> 100 µM

row,SMILES,CC50
1,Cc1ccc(NC(=S)OC(C)COc2ccccc2)cc1Cl (racemic),> 100 µM
2,COc1ccccc1CCOC(=S)Nc1ccc(Cl)c([N+](=O)[O-])c1,44 µM
3,COc1ccccc1CCOC(=S)Nc1ccc([N+](=O)[O-])cc1,> 100 µM
4,CC(OC(=S)Nc1ccc(Cl)cc1)c1ccc(-c2ccccc2)cc1 (racemic),> 100 µM
5,S=C(Nc1ccccc1)OCc1cccc(Oc2ccccc2)c1,> 100 µM
6,COc1ccc(NC(=S)OCCOc2ccccc2)cc1,48 µM
7,S=C(Nc1ccccc1)OCc1cccs1,38 µM
8,CC(COc1ccccc1)OC(=S)Nc1ccc(F)cc1 (racemic),> 100 µM
9,Cc1cccc(CCOC(=S)Nc2ccc([N+](=O)[O-])cc2)c1,96 µM
10,CC(COc1ccccc1)OC(=S)Nc1ccccc1 (racemic),> 100 µM
11,Cc1ccc(NC(=S)OC(C)COc2ccccc2)cc1 (racemic),24 µM
12,COc1cccc(CCOC(=S)Nc2ccc(Cl)cc2)c1,94 µM
13,Cc1ccc(CCOC(=S)Nc2ccc([N+](=O)[O-])cc2)cc1,> 100 µM
14,COc1cccc(CCOC(=S)Nc2ccc([N+](=O)[O-])cc2)c1,> 100 µM
15,CC(COC(=S)Nc1ccc(Cl)cc1)c1ccccc1 (racemic),30 µM

# System: not listed separately
# Experiment: Selectivity index, ratio of CC50 for human MT4 cells to EC50 for HIV1
# Type: toxicity, cell-based
# Details: read-out: Ratio CC50/EC50
row,SMILES,selectivity ratio
1,Cc1ccc(NC(=S)OCCOc2ccccc2)cc1,7.4
2,CC(COC(=S)Nc1ccc(Cl)c(Cl)c1)c1ccccc1 (racemic),147
3,S=C(Nc1ccccc1)OCCSc1ccccc1,> 2.6
4,S=C(Nc1ccccc1)OC/C=C/c1ccccc1,> 1.5
5,COc1ccccc1CCOC(=S)Nc1ccc(Cl)cc1,614
6,COc1ccccc1CCOC(=S)Nc1ccc(Cl)c(Cl)c1,> 150
7,S=C(Nc1ccc(Cl)cc1)OCCOc1ccccc1,12
8,COc1cccc(CCOC(=S)Nc2ccc(Cl)c(Cl)c2)c1,44
9,S=C(Nc1ccccc1)OCC1COc2ccccc2O1 (stereo not drawn),> 1.9
10,O=[N+]([O-])c1ccc(NC(=S)OCCc2cccc(O)c2)cc1,6.5
11,S=C(Nc1ccccc1)OCC1(c2ccccc2)CC1,7.3
12,Cc1ccccc1CCOC(=S)Nc1ccc([N+](=O)[O-])cc1,> 143
13,CC(OC(=S)Nc1ccc([N+](=O)[O-])cc1)c1ccc(Cl)cc1 (racemic),> 14
14,Cc1ccc(NC(=S)OC(C)COc2ccccc2)cc1Cl (racemic),> 25
15,COc1ccccc1CCOC(=S)Nc1ccc(Cl)c([N+](=O)[O-])c1,49
16,COc1ccccc1CCOC(=S)Nc1ccc([N+](=O)[O-])cc1,> 1000
17,CC(OC(=S)Nc1ccc(Cl)cc1)c1ccc(-c2ccccc2)cc1 (racemic),> 1.8
18,COc1ccc(NC(=S)OCCOc2ccccc2)cc1,2.8
19,S=C(Nc1ccccc1)OCc1cccs1,< 1
20,CC(COc1ccccc1)OC(=S)Nc1ccc(F)cc1 (racemic),> 9
21,Cc1cccc(CCOC(=S)Nc2ccc([N+](=O)[O-])cc2)c1,192
22,CC(COc1ccccc1)OC(=S)Nc1ccccc1 (racemic),> 50
23,Cc1ccc(NC(=S)OC(C)COc2ccccc2)cc1 (racemic),20
24,COc1cccc(CCOC(=S)Nc2ccc(Cl)cc2)c1,1180
25,Cc1ccc(CCOC(=S)Nc2ccc([N+](=O)[O-])cc2)cc1,> 333
26,COc1cccc(CCOC(=S)Nc2ccc([N+](=O)[O-])cc2)c1,> 500
27,CC(COC(=S)Nc1ccc(Cl)cc1)c1ccccc1 (racemic),150

# System: Human immunodeficiency virus 1
# Experiment: Antiviral activity against HIV1 with reverse transcriptase K103N/Y181C mutation in human MT4 cells assessed as inhibition of virus-induced cytopathogenicity by MTT assay
# Type: functional, organism-based
# Details: not given
row,SMILES,Activity
1,COc1ccccc1CCOC(=S)Nc1ccc(Cl)cc1,inactive
2,COc1cccc(CCOC(=S)Nc2ccc([N+](=O)[O-])cc2)c1,inactive
3,CC(COC(=S)Nc1ccc(Cl)cc1)c1ccccc1 (racemic),inactive

# Same assay, conditions: Human immunodeficiency virus 1, MT4
row,SMILES,EC50
1,Cc1cccc(CCOC(=S)Nc2ccc([N+](=O)[O-])cc2)c1,69 µM
2,COc1cccc(CCOC(=S)Nc2ccc(Cl)cc2)c1,86 µM
3,Cc1ccc(CCOC(=S)Nc2ccc([N+](=O)[O-])cc2)cc1,92 µM
